Data taken from US20200017495A1, “NOVEL HETEROCYCLIC COMPOUNDS AND THEIR USE IN PREVENTING OR TREATING BACTERIAL INFECTIONS” (priority 2017, published 2020).
Read-outs that look alike come from different tables or passages of the source.

How the values were obtained:
[1] = tested on: Escherichia coli (ECO) isolates; experiment: MIC of compounds alone and combined with antibacterials, broth microdilution (CLSI); type: cell-based; conditions: Escherichia coli
Method in brief: (§1)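 Antibacterial MICs in combination were determined at every compound concentration tested, alongside compound MICs alone. Bacteria grew in cation-adjusted Mueller-Hinton broth starting from 5.10^5 CFU/mL, incubated at 35° C for 16-20 h, and endpoints were the lowest concentrations with no visible growth.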

[2] = tested on: Klebsiella pneumoniae (KPN) isolates; experiment: as above; type: cell-based; conditions: Klebsiella pneumoniae
Method in brief: as §1

Structure (SMILES): C=CC1=C(C(=O)O)N2C(=O)[C@@H](NC(=O)/C(=N\O)c3csc(N)n3)[C@H]2SC1 [CDR, Cefdinir]
- MIC ([1]; strain ECO 4133, genotype TEM-30, OXA-1, read-out: MIC): 0.5 µg/mL
- MIC ([1]; strain ECO 5302, genotype TEM-1, OXA-1, read-out: MIC): 1 µg/mL
- MIC ([1]; strain ECO 131119, genotype TEM-1, OXA-48, read-out: MIC): 256 µg/mL
- MIC ([1]; strain ECO 180070, genotype TEM-1, CTX-M-15): > 256 µg/mL
- MIC ([1]; strain ECO 190314, genotype CTX-M-1): > 256 µg/mL
- MIC ([1]; strain ECO 190317, genotype TEM-1, SHV-12, CTX-M-15, OXA-1): > 256 µg/mL
- MIC ([1]; strain ECO 190457, genotype CTX-M-15, OXA-1): > 256 µg/mL
- MIC ([1]; strain ECO 190549, genotype CTX-M-1, read-out: MIC): 256 µg/mL
- MIC ([1]; strain ECO 200159, genotype TEM-1, CTX-M-14, read-out: MIC): 256 µg/mL
- MIC ([1]; strain ECO 200259, genotype CTX-M-14, read-out: MIC): 256 µg/mL
- MIC ([1]; strain ECO 200344, genotype CTX-M-1): > 256 µg/mL
- MIC ([1]; strain ECO 260096, genotype CTX-M-132): > 256 µg/mL
- MIC ([1]; strain ECO 260304, genotype CTX-M-15, read-out: MIC): 256 µg/mL
- MIC ([1]; strain ECO 260508, genotype TEM-1, CTX-M-15, OXA-1): > 256 µg/mL
- MIC ([1]; strain ECO RGN238, genotype OXA-1, read-out: MIC): 0.5 µg/mL
- MIC ([1]; strain ECO UFR15, genotype TEM-1, OXA-48): > 256 µg/mL
- MIC ([1]; strain ECO UFR16, genotype TEM-1, CTX-M-15, OXA-1, OXA-48): > 256 µg/mL
- MIC ([1]; strain ECO UFR17, genotype TEM-1, CTX-M-15, CMY-2, OXA-1, OXA-181): > 256 µg/mL
- MIC ([1]; strain ECO UFR18, genotype CTX-M-15, OXA-204): > 256 µg/mL
- MIC ([1]; strain ECO UFR19, genotype CTX-M-15, CMY-2, OXA-1, OXA-204): > 256 µg/mL
- MIC ([1]; strain ECO UFR20, genotype SHV-1, CTX-M-15, OXA-1, OXA-232): > 256 µg/mL
- MIC ([1]; strain ECO UFR61O, genotype TEM-1, KPC-2): > 256 µg/mL
- MIC ([1]; strain ECO UFR62, genotype TEM-1, CTX-M-9, KPC-2): > 256 µg/mL
- MIC ([1]; strain ECO UFR74, genotype SHV-1, DHA-1): > 256 µg/mL
- MIC ([1]; strain ECO UFR86, genotype ompC-, ompF-, read-out: MIC): 2 µg/mL
- MIC ([1]; strain ECO UFR174, genotype TEM-1, KPC-2, OXA-1): > 256 µg/mL
- MIC ([1]; strain ECO UFR175, genotype TEM-1, KPC-2, OXA-9): > 256 µg/mL
- MIC ([1]; strain ECO UFR176, genotype KPC-3, OXA-9*): > 256 µg/mL
- MIC ([1]; strain ECO UFR184, genotype CTX-M-15, CMY-4, OXA-1, OXA-204): > 256 µg/mL
- MIC ([1]; strain ECO UFR185, genotype OXA-48): > 256 µg/mL
- MIC ([1]; strain ECO UFR186, genotype TEM-1, CTX-M-14, OXA-48): > 256 µg/mL
- MIC ([1]; strain ECO UFR187, genotype CTX-M-15, OXA-48): > 256 µg/mL
- MIC ([1]; strain ECO UFR189, genotype TEM-1, CTX-M-15, OXA-48): > 256 µg/mL
- MIC ([1]; strain ECO UFR190, genotype CTX-M-24, OXA-48): > 256 µg/mL
- MIC ([1]; strain ECO UFR191, genotype TEM-1, CTX-M-24, OXA-48): > 256 µg/mL
- MIC ([1]; strain ECO UFR207, genotype CTX-M-15): > 256 µg/mL
- MIC ([1]; strain ECO UFR208, genotype SHV-12): > 256 µg/mL
- MIC ([1]; strain ECO UFR209, genotype TEM-1, CTX-M-15): > 256 µg/mL
- MIC ([1]; strain ECO UFR210, genotype SHV-12): > 256 µg/mL
- MIC ([1]; strain ECO UFR211, genotype TEM-24, read-out: MIC): 32 µg/mL
- MIC ([1]; strain ECO UFR212, genotype CMY-2): > 256 µg/mL
- MIC ([1]; strain ECO UFR218, genotype TEM-1, SHV-1, CTX-M-15): > 256 µg/mL
- MIC ([2]; BAA1898, strain KPN BAA-1898, genotype TEM-1, SHV-11, SHV-12, KPC-2): > 256 µg/mL
- MIC ([2]; strain KPN 6299, genotype TEM-1, SHV-11, OXA-163, read-out: MIC): 256 µg/mL
- MIC ([2]; strain KPN 110376, genotype TEM-1, SHV-1, CTX-M-15, OXA-1, OXA-48): > 256 µg/mL
- MIC ([2]; strain KPN 131119, genotype TEM-1, SHV-11, CTX-M-15, OXA-1, OXA-48): > 256 µg/mL
- MIC ([2]; strain KPN 140513, genotype TEM-1, SHV-11, CTX-M-15, KPC-3): > 256 µg/mL
- MIC ([2]; strain KPN 160143, genotype TEM-1, SHV-1, CTX-M-15, KPC-2, OXA-1): > 256 µg/mL
- MIC ([2]; strain KPN 190128, genotype TEM-1, SHV-32, CTX-M-15, OXA-1): > 256 µg/mL
- MIC ([2]; strain KPN 190270, genotype TEM-1, SHV-76, CTX-M-15, OXA-1): > 256 µg/mL
- MIC ([2]; strain KPN 190425, genotype TEM-1, SHV-1, CTX-M-15, OXA-1): > 256 µg/mL
- MIC ([2]; strain KPN 190551, genotype TEM-1, SHV-1, CTX-M-15, OXA-1): > 256 µg/mL
- MIC ([2]; strain KPN 200047, genotype TEM-1, SHV-32, CTX-M-15, OXA-1): > 256 µg/mL
- MIC ([2]; strain KPN 200327, genotype TEM-1, SHV-1, CTX-M-15, OXA-1): > 256 µg/mL
- MIC ([2]; strain KPN 260251, genotype TEM-1, SHV-11, SHV-12, CTX-M-15, KPC-2): > 256 µg/mL
- MIC ([2]; strain KPN 260252, genotype TEM-1, SHV-11, KPC-3): > 256 µg/mL
- MIC ([2]; strain KPN 260376, genotype SHV-1, SHV-49, OXA-1): > 256 µg/mL
- MIC ([2]; strain KPN 270077, genotype TEM-1, SHV-1, CTX-M-15): > 256 µg/mL
- MIC ([2]; strain KPN 700603, genotype SHV-18, OXA-2, read-out: MIC): 4 µg/mL
- MIC ([2]; strain KPN ARA, genotype TEM-1, SHV-11, CTX-M-15, OXA-1, OXA-48): > 256 µg/mL
- MIC ([2]; strain KPN LIB, genotype SHV-11, OXA-48): > 256 µg/mL
- MIC ([2]; strain KPN UFR22_O, genotype TEM-1, SHV-1, OXA-48): > 256 µg/mL
- MIC ([2]; strain KPN UFR23, genotype TEM-1, SHV-1, OXA-48): > 256 µg/mL
- MIC ([2]; strain KPN UFR24, genotype TEM-1, SHV-2, SHV-11, OXA-1, OXA-48, OXA-47): > 256 µg/mL
- MIC ([2]; strain KPN UFR25, genotype TEM-1, SHV-11, CTX-M-15, OXA-162): > 256 µg/mL
- MIC ([2]; strain KPN UFR27, genotype TEM-1, SHV-28, CTX-M-15, OXA-204): > 256 µg/mL
- MIC ([2]; strain KPN UFR28, genotype TEM-1, SHV-1, CTX-M-15, OXA-1, OXA-232): > 256 µg/mL
- MIC ([2]; strain KPN UFR65, genotype TEM-1, SHV-11, KPC-2): > 256 µg/mL
- MIC ([2]; strain KPN UFR66, genotype TEM-1, SHV-11, CTX-M-15, KPC-2): > 256 µg/mL
- MIC ([2]; strain KPN UFR67, genotype TEM-1, SHV-11, KPC-3): > 256 µg/mL
- MIC ([2]; strain KPN UFR68, genotype TEM-1, SHV-11, CTX-M-15, KPC-3): > 256 µg/mL
- MIC ([2]; strain KPN UFR76, genotype TEM-155, SHV-11, ACT-1, OXA-2): > 256 µg/mL
- MIC ([2]; strain KPN UFR77, genotype CMY-2, read-out: MIC): 64 µg/mL
- MIC ([2]; strain KPN UFR78, genotype TEM-1, SHV-1, CTX-M-15, CMY-2, OXA-1, OXA-48): > 256 µg/mL
- MIC ([2]; strain KPN UFR79, genotype DHA-1, OXA-1, read-out: MIC): 256 µg/mL
- MIC ([2]; strain KPN UFR80, genotype SHV-11, DHA-1, OXA-1, read-out: MIC): 1 µg/mL
- MIC ([2]; strain KPN UFR81, genotype TEM-1, SHV-1, DHA-1, OXA-48): > 256 µg/mL
- MIC ([2]; strain KPN UFR215, genotype SHV-27, CTX-M-15): > 256 µg/mL
- MIC ([2]; strain KPN UFR216, genotype SHV-28, CTX-M-15): > 256 µg/mL
- MIC ([2]; strain KPN UFR217, genotype TEM-1, SHV-1, CTX-M-15): > 256 µg/mL
- MIC ([2]; strain KPN UFR219, genotype SHV-12, CTX-M-15): > 256 µg/mL
- MIC ([2]; strain KPN UFR220, genotype TEM-1, SHV-12, DHA-1): > 256 µg/mL
- MIC ([2]; strain KPN UFR221, genotype TEM-1, SHV-11, CTX-M-14, DHA-1, read-out: MIC): 128 µg/mL
- MIC ([2]; strain KPN UFR222, genotype DHA-2): > 256 µg/mL
- MIC ([2]; strain KPN UFR227O, genotype TEM-x, SHV-x, CTX-M-x): > 256 µg/mL
